{
  "source": "paper PMC6326999",
  "about": "“Functionalized Magnetic Bacterial Cellulose Beads as Carrier for Lecitase® Ultra Immobilization” (Applied Biochemistry and Biotechnology, 2018)",
  "tested_on": "T1, Lecitase® Ultra (LU)",
  "T1 construct": "gene LIP; commercial preparation (Sigma-Aldrich), free enzyme",
  "assay": "absorbance at […] nm, hydrolysis initial rates, non-linear Michaelis-Menten fit",
  "type": "biochemical",
  "conditions": "free enzyme; 50 mM Tris-Cl pH 8.5, 0.25% Triton X-100, 30 °C (standard assay); commercial preparation; kcat column headed 'Kcat × 10^3 (s^-1)'",
  "data": [
    {"smiles": "CCCCCCCCCCCCCCCC(=O)Oc1ccc([N+](=O)[O-])cc1", "note": "[4-nitrophenol palmitate]", "values": [
      {"measurement": "Km", "result": "450 ± 50", "unit": "µM"}
    ]}
  ]
}
